Data taken from ChEMBL document CHEMBL3046460, “Preparation of Dinotefuran Related Compounds and Agonistic Action on SAD2 Hybrid Nicotinic Acetylcholine Receptors Expressed in Xenopus laevis Oocytes” (J Pestic Sci, 2002).

Assay: Agonist activity at Drosophila melanogaster SAD/chicken beta2 nAChR expressed in Xenopus laevis oocytes assessed as inward current by two-electrode voltageclamp technique
Type: cell-based

For `O=[N+]([O-])/N=C1\NCCN1CC1CCOC1` (centres undefined), the EC50 was 148 µM.
Compound `CC(=O)OCC[N+](C)(C)C` [ACETYLCHOLINE] has an EC50 of 20 µM.
In the case of `CN/C(=N/CC1CCOC1)N[N+](=O)[O-]` (centres undefined) [DINOTEFURAN], the EC50 is reported as 224 µM.
For `O=[N+]([O-])/N=C1\NCCN1Cc1ccc(Cl)nc1` [IMIDACLOPRID], the EC50 was 2.82 µM.
